Reference: PMC11536340, “A Dynamic Loop in Halohydrin Dehalogenase HheG Regulates Activity and Enantioselectivity in Epoxide Ring Opening” (ACS Catalysis, 2024)
Read-outs that look alike come from different tables or passages of the source.

Biological target: T1, HheG (Ilumatobacter coccineus, UniProt Z9P531QQL2, M65F, form not given)
T1 construct: homotetramer
T1 sequence (Z9P531QQL2 21-282 M65F): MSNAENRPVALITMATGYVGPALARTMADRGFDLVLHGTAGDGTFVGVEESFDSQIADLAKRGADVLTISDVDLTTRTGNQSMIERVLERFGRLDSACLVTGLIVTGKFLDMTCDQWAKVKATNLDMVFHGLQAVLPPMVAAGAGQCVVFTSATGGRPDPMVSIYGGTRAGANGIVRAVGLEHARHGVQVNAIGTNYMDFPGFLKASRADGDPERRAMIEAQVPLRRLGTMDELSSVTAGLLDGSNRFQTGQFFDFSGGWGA
Test: BTB (bromothymol blue) pH-indicator assay, initial rates, Hill fit
Assay type: biochemical
Conditions: 2 mM MOPS pH 7.0
Description: BTB (bromothymol blue) pH-indicator assay, initial rates, Hill fit on HheG

Row | SMILES | Km (cyclohexene oxide fixed at 100 mM, Hill coefficient n 3.94 ± 0.29, read-out: azide / K50) | Km (azide fixed at 60 mM, Hill coefficient n 3.33 ± 0.27, read-out: cyclohexene oxide / K50)
1 | [N-]=[N+]=[N-] [azide] | 10.1 ± 0.21 mM | 
2 | C1CCC2OC2C1 (centres unmarked) [compound 1, cyclohexene oxide] |  | 28 ± 0.64 mM
